Data set [1] concerns the target T1, URAT1^EM (humanized rat URAT1, rURAT1-3M) (Rattus norvegicus, UniProt Q3ZAV1, M481I/N35S/Y365F).
T1 sequence (Q3ZAV1 1-553 N35S/Y365F/M481I): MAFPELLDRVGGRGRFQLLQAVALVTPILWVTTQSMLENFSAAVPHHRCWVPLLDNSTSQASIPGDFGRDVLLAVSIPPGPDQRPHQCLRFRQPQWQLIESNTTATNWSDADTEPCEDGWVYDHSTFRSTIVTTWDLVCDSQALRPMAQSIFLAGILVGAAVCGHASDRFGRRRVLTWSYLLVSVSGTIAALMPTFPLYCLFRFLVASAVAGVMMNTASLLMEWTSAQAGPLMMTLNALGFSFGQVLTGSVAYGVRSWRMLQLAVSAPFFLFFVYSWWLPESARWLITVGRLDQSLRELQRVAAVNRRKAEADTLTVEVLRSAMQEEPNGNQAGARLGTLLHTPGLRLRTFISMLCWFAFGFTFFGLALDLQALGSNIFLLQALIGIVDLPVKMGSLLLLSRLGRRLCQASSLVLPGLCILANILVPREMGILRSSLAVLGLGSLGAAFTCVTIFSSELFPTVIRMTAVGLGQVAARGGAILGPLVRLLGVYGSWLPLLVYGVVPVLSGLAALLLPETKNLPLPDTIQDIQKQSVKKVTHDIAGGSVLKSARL
The data set is described as follows: cell-based.

A further data set has as its target T2, human URAT1 (hURAT1) (Homo sapiens, UniProt Q96S37).
T2 sequence (Q96S37 1-553): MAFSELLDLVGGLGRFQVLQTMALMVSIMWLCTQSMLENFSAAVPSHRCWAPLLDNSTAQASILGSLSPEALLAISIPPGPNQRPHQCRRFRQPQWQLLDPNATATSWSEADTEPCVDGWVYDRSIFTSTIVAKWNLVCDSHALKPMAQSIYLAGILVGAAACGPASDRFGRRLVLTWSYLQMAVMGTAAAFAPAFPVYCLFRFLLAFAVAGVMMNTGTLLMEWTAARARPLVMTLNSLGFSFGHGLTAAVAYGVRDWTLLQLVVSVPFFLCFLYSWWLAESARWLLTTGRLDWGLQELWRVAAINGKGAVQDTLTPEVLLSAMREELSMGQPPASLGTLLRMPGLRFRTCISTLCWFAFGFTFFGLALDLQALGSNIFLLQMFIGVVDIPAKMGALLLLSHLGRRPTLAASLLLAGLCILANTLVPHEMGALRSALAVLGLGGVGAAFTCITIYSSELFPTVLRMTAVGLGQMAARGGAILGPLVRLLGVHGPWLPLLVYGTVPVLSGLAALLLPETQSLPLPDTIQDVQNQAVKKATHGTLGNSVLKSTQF
The data set is described as follows: inhibition of urate uptake in transfected HEK293T cells. The format is cell-based.

Data set [2] addresses T1, URAT1^EM (humanized rat URAT1, rURAT1-3M). Description: cryo-EM structure at […] Å. The class given is cell-based.
Substrate in data set [3]: O=c1[nH]c(=O)c2[nH]c(=O)[nH]c2[nH]1
Description: concentration-dependent urate uptake in HEK293T cells, Km. The class given is cell-based, Rattus norvegicus.

Substrate in data set [4]: O=c1[nH]c(=O)c2[nH]c(=O)[nH]c2[nH]1
Described as above. The class given is cell-based, Homo sapiens.

Where two headings read alike, the source gives them in different places.

As usually defined, the IC50 is the concentration at which inhibition is half-maximal. A high value points to a need for much substance. `CCc1oc2ccccc2c1C(=O)c1cc(Br)c(O)c(Br)c1` [BEN, benzbromarone]: in data set [1], the half-maximal inhibitory concentration (IC50) was 425 nM. That is a sub-micromolar value.
As for `CC(C)(Sc1ccncc1-c1ccc(C#N)c2ccccc12)C(=O)O` [VER, verinurad], the IC50 result against human URAT1 (hURAT1) was “Inhibition of human URAT1 WT and variants by verinurad”; in data set [2], 150 nM.

B1: URAT1^EM (humanized rat URAT1, rURAT1-3M) (Rattus norvegicus; M481I/N35S/Y365F) (protein)
chain: MAFPELLDRVGGRGRFQLLQAVALVTPILWVTTQSMLENFSAAVPHHRCWVPLLDNSTSQASIPGDFGRDVLLAVSIPPGPDQRPHQCLRFRQPQWQLIESNTTATNWSDADTEPCEDGWVYDHSTFRSTIVTTWDLVCDSQALRPMAQSIFLAGILVGAAVCGHASDRFGRRRVLTWSYLLVSVSGTIAALMPTFPLYCLFRFLVASAVAGVMMNTASLLMEWTSAQAGPLMMTLNALGFSFGQVLTGSVAYGVRSWRMLQLAVSAPFFLFFVYSWWLPESARWLITVGRLDQSLRELQRVAAVNRRKAEADTLTVEVLRSAMQEEPNGNQAGARLGTLLHTPGLRLRTFISMLCWFAFGFTFFGLALDLQALGSNIFLLQALIGIVDLPVKMGSLLLLSRLGRRLCQASSLVLPGLCILANILVPREMGILRSSLAVLGLGSLGAAFTCVTIFSSELFPTVIRMTAVGLGQVAARGGAILGPLVRLLGVYGSWLPLLVYGVVPVLSGLAALLLPETKNLPLPDTIQDIQKQSVKKVTHDIAGGSVLKSARL
As usually defined, the Km is the substrate concentration at which the rate is half of its maximum. Consider B1, for which the Km in data set [3] was determined as 203 µM.

B2: human URAT1 (hURAT1) (Homo sapiens) (protein)
chain: MAFSELLDLVGGLGRFQVLQTMALMVSIMWLCTQSMLENFSAAVPSHRCWAPLLDNSTAQASILGSLSPEALLAISIPPGPNQRPHQCRRFRQPQWQLLDPNATATSWSEADTEPCVDGWVYDRSIFTSTIVAKWNLVCDSHALKPMAQSIYLAGILVGAAACGPASDRFGRRLVLTWSYLQMAVMGTAAAFAPAFPVYCLFRFLLAFAVAGVMMNTGTLLMEWTAARARPLVMTLNSLGFSFGHGLTAAVAYGVRDWTLLQLVVSVPFFLCFLYSWWLAESARWLLTTGRLDWGLQELWRVAAINGKGAVQDTLTPEVLLSAMREELSMGQPPASLGTLLRMPGLRFRTCISTLCWFAFGFTFFGLALDLQALGSNIFLLQMFIGVVDIPAKMGALLLLSHLGRRPTLAASLLLAGLCILANTLVPHEMGALRSALAVLGLGGVGAAFTCITIYSSELFPTVLRMTAVGLGQMAARGGAILGPLVRLLGVHGPWLPLLVYGTVPVLSGLAALLLPETQSLPLPDTIQDVQNQAVKKATHGTLGNSVLKSTQF
As to B2, the Km in data set [4] was determined as 80 µM.

Values taken from paper PMC11937972 (JACS Au, 2025).
